Source: patent US5110800A, “Derivatives of erythromycylamine” (Eli Lilly and Company, priority 1989, dated 1992)
≈ marks a conversion by molar mass, not a printed value. Read-outs that look alike come from different tables or passages of the source.

Key:
Experiment in all cases: MIC, standard agar-dilution assay
Format in all cases: cell-based
[1] = test system: Staphylococcus aureus X1.1; settings: Staphylococcus aureus, X1.1, read-out: minimal inhibitory concentration (MIC)
[2] = test system: Streptococcus pyogenes C203; settings: Streptococcus pyogenes, C203, read-out: minimal inhibitory concentration (MIC)
[3] = test system: Streptococcus sp. group D 2041; settings: Streptococcus, read-out: minimal inhibitory concentration (MIC)
[4] = test system: Haemophilus influenzae 76
[5] = test system: Staphylococcus epidermidis 222; settings: Staphylococcus epidermidis, 222, read-out: minimal inhibitory concentration (MIC)
[6] = test system: Streptococcus sp. group D X66; settings: Streptococcus, read-out: minimal inhibitory concentration (MIC)
[7] = test system: Staphylococcus epidermidis 270
Description: (§1) In addition to excellent in vitro activity against erythromycin-sensitive bacteria, several members of this new series have shown in vitro activity against erythromycin-resistant strains. These include strains which are inducibly-resistant to erythromycin (S. aureus V41 and X400 and S. epidermidis EPI1) and even strains which are constitutively-resistant (S. epidermidis 270).

[8] = test system: Haemophilus influenzae C.L.; settings: Haemophilus influenzae, read-out: minimal inhibitory concentration (MIC)
[9] = test system: Streptococcus pneumoniae Park I; settings: Streptococcus pneumoniae, read-out: minimal inhibitory concentration (MIC)
[10] = test system: Staphylococcus aureus V41; settings: Staphylococcus aureus
Description: as §1

[11] = test system: Staphylococcus aureus X400; settings: Staphylococcus aureus
Description: as §1

[12] = test system: Klebsiella pneumoniae X68; settings: Klebsiella pneumoniae
Escherichia coli EC14 = settings: Escherichia coli
[13] = test system: Staphylococcus aureus S13E; settings: Staphylococcus aureus, S13E, read-out: minimal inhibitory concentration (MIC)
[14] = Haemophilus influenzae, 76, read-out: minimal inhibitory concentration (MIC)
[15] = Staphylococcus epidermidis, 270, Table IV, constitutively erythromycin-resistant, read-out: minimal inhibitory concentration (MIC)
[16] = V41, Table IV, penicillin-resistant strain, inducibly erythromycin-resistant, read-out: minimal inhibitory concentration (MIC)
[17] = X400, Table IV, methicillin-resistant strain, inducibly erythromycin-resistant, read-out: minimal inhibitory concentration (MIC)
[18] = X68, read-out: minimal inhibitory concentration (MIC)
[19] = EC14, read-out: minimal inhibitory concentration (MIC)
[20] = X68, Table IV, agar dilution, read-out: minimal inhibitory concentration (MIC)
[21] = EC14, Table IV, agar dilution, read-out: minimal inhibitory concentration (MIC)
[22] = Haemophilus influenzae, 76, Table IV, ampicillin-resistant strain, read-out: minimal inhibitory concentration (MIC)

Row | SMILES | MIC [1] [µg/mL] | MIC [2] [µg/mL] | MIC [3] [µg/mL] | MIC [4, 14] [µg/mL] | MIC [5] [µg/mL] | MIC [6] [µg/mL] | MIC [7, 15] [µg/mL] | MIC [8] [µg/mL] | MIC [9] [µg/mL] | MIC [10, 16] [µg/mL] | MIC [11, 17] [µg/mL] | MIC (Escherichia coli EC14; [19]) [µg/mL] | MIC [12, 20] [µg/mL] | MIC (Escherichia coli EC14; [21]) [µg/mL] | MIC [13] [µg/mL] | MIC [4, 22] [µg/mL] | also measured
1 | CC[C@H]1OC(=O)[C@H](C)[C@@H](O[C@H]2C[C@@](C)(OC)[C@@H](O)[C@H](C)O2)[C@H](C)[C@@H](O[C@@H]2O[C@H](C)C[C@H](N(C)C)[C@H]2O)[C@](C)(O)C[C@@H](C)[C@H](NC)[C@H](C)[C@@H](O)[C@]1(C)O [Compound 1, 9-Deoxo-9-(methylamino)erythromycin] | 1 (≈ 1.34 µM) | 0.06 (≈ 0.0801 µM) | 1 (≈ 1.34 µM) | 1 (≈ 1.34 µM) | 0.25 (≈ 0.334 µM) | 0.125 (≈ 0.167 µM) | > 128 | – | – | – | – | – | – | – | – | – | –
2 | CCCCN[C@@H]1[C@H](C)[C@@H](O)[C@](C)(O)[C@@H](CC)OC(=O)[C@H](C)[C@@H](O[C@H]2C[C@@](C)(OC)[C@@H](O)[C@H](C)O2)[C@H](C)[C@@H](O[C@@H]2O[C@H](C)C[C@H](N(C)C)[C@H]2O)[C@](C)(O)C[C@H]1C [Compound 4, 9-Deoxo-9-(n-butylamino)erythromycin] | 0.25 (≈ 0.316 µM) | 0.06 (≈ 0.0758 µM) | 1 (≈ 1.26 µM) | 1 (≈ 1.26 µM) | 0.25 (≈ 0.316 µM) | 0.125 (≈ 0.158 µM) | > 128 | 1 (≈ 1.26 µM) | 0.015 (≈ 0.019 µM) | > 128 | > 128 | – | – | – | – | – | –
3 | CCCCCN[C@@H]1[C@H](C)[C@@H](O)[C@](C)(O)[C@@H](CC)OC(=O)[C@H](C)[C@@H](O[C@H]2C[C@@](C)(OC)[C@@H](O)[C@H](C)O2)[C@H](C)[C@@H](O[C@@H]2O[C@H](C)C[C@H](N(C)C)[C@H]2O)[C@](C)(O)C[C@H]1C [Compound 5, 9-Deoxo-9-(n-pentylamino)erythromycin] | – | 0.06 (≈ 0.0745 µM) | – | – | – | 0.125 (≈ 0.155 µM) | > 128 | – | 0.015 (≈ 0.0186 µM) | > 128 | > 128 | 128 (≈ 159 µM) | – | – | – | – | MIC [12, 18]: 128 µg/mL (≈ 159 µM)
4 | CCCCCCCCCCN[C@@H]1[C@H](C)[C@@H](O)[C@](C)(O)[C@@H](CC)OC(=O)[C@H](C)[C@@H](O[C@H]2C[C@@](C)(OC)[C@@H](O)[C@H](C)O2)[C@H](C)[C@@H](O[C@@H]2O[C@H](C)C[C@H](N(C)C)[C@H]2O)[C@](C)(O)C[C@H]1C [Compound 9, 9-Deoxo-9-(n-decylamino)erythromycin] | 1 (≈ 1.14 µM) | 0.015 (≈ 0.0171 µM) | 2 (≈ 2.29 µM) | 1 (≈ 1.14 µM) | 1 (≈ 1.14 µM) | 0.25 (≈ 0.286 µM) | – | 2 (≈ 2.29 µM) | 0.015 (≈ 0.0171 µM) | – | – | – | > 128 | > 128 | – | – | –
5 | CCCCCCCCCCCCN[C@@H]1[C@H](C)[C@@H](O)[C@](C)(O)[C@@H](CC)OC(=O)[C@H](C)[C@@H](O[C@H]2C[C@@](C)(OC)[C@@H](O)[C@H](C)O2)[C@H](C)[C@@H](O[C@@H]2O[C@H](C)C[C@H](N(C)C)[C@H]2O)[C@](C)(O)C[C@H]1C [Compound 10, 9-Deoxo-9-(n-dodecylamino)erythromycin] | – | – | – | – | – | 1 (≈ 1.11 µM) | – | – | 0.06 (≈ 0.0664 µM) | – | – | – | > 128 | > 128 | – | – | –
6 | CC[C@H]1OC(=O)[C@H](C)[C@@H](O[C@H]2C[C@@](C)(OC)[C@@H](O)[C@H](C)O2)[C@H](C)[C@@H](O[C@@H]2O[C@H](C)C[C@H](N(C)C)[C@H]2O)[C@](C)(O)C[C@@H](C)[C@H](NCC2CCCCCCC2)[C@H](C)[C@@H](O)[C@]1(C)O [Compound 16, 9-Deoxo-9-[(cyclooctylmethyl)amino]erythromycin] | 0.5 (≈ 0.582 µM) | – | 1 (≈ 1.16 µM) | 1 (≈ 1.16 µM) | 0.25 (≈ 0.291 µM) | – | > 128 | – | – | – | – | – | > 128 | – | – | – | –
7 | CC[C@H]1OC(=O)[C@H](C)[C@@H](O[C@H]2C[C@@](C)(OC)[C@@H](O)[C@H](C)O2)[C@H](C)[C@@H](O[C@@H]2O[C@H](C)C[C@H](N(C)C)[C@H]2O)[C@](C)(O)C[C@@H](C)[C@H](NCCCc2ccccc2)[C@H](C)[C@@H](O)[C@]1(C)O [Compound 17, (9S)-9-Deoxo-9-[(3-phenylpropyl)amino]erythromycin] | 1 (≈ 1.17 µM) | 0.015 (≈ 0.0176 µM) | 2 (≈ 2.34 µM) | – | 0.5 (≈ 0.586 µM) | 0.06 (≈ 0.0703 µM) | > 128 | 2 (≈ 2.34 µM) | 0.015 (≈ 0.0176 µM) | > 128 | > 128 | 128 (≈ 150 µM) | > 128 | – | – | – | –
8 | CC[C@H]1OC(=O)[C@H](C)[C@@H](O[C@H]2C[C@@](C)(OC)[C@@H](O)[C@H](C)O2)[C@H](C)[C@@H](O[C@@H]2O[C@H](C)C[C@H](N(C)C)[C@H]2O)[C@](C)(O)C[C@@H](C)[C@H](NCCCSC)[C@H](C)[C@@H](O)[C@]1(C)O [Compound 26, 9-Deoxo-9-[[3-(methylthio)propyl]amino]erythromycin] | – | 0.015 (≈ 0.0182 µM) | – | – | – | 0.25 (≈ 0.304 µM) | > 128 | – | 0.015 (≈ 0.0182 µM) | > 128 | > 128 | 128 (≈ 156 µM) | > 128 | – | – | – | –
9 | CCOC(=O)C1CC1CN[C@@H]1[C@H](C)[C@@H](O)[C@](C)(O)[C@@H](CC)OC(=O)[C@H](C)[C@@H](O[C@H]2C[C@@](C)(OC)[C@@H](O)[C@H](C)O2)[C@H](C)[C@@H](O[C@@H]2O[C@H](C)C[C@H](N(C)C)[C@H]2O)[C@](C)(O)C[C@H]1C (stereo partly shown) [Compound 27, 9-Deoxo-9-[[[2-(ethoxycarbonyl)cyclopropyl]methyl]amino]erythromycin] | 1 (≈ 1.16 µM) | 0.5 (≈ 0.581 µM) | 2 (≈ 2.32 µM) | – | 0.5 (≈ 0.581 µM) | 0.125 (≈ 0.145 µM) | > 128 | 2 (≈ 2.32 µM) | – | > 128 | > 128 | 128 (≈ 149 µM) | – | – | 1 (≈ 1.16 µM) | 2 (≈ 2.32 µM) | MIC [12, 18]: 128 µg/mL (≈ 149 µM)
10 | C=CCCCCCCCCCN[C@@H]1[C@H](C)[C@@H](O)[C@](C)(O)[C@@H](CC)OC(=O)[C@H](C)[C@@H](O[C@H]2C[C@@](C)(OC)[C@@H](O)[C@H](C)O2)[C@H](C)[C@@H](O[C@@H]2O[C@H](C)C[C@H](N(C)C)[C@H]2O)[C@](C)(O)C[C@H]1C [Compound 28, 9-Deoxo-9-[(undec-10-enyl)amino]erythromycin] | 2 (≈ 2.25 µM) | 1 (≈ 1.13 µM) | 2 (≈ 2.25 µM) | – | 1 (≈ 1.13 µM) | 0.125 (≈ 0.141 µM) | 32 (≈ 36.1 µM) | 2 (≈ 2.25 µM) | – | 8 (≈ 9.02 µM) | 8 (≈ 9.02 µM) | – | > 128 | > 128 | 2 (≈ 2.25 µM) | 2 (≈ 2.25 µM) | –
11 | CC[C@H]1OC(=O)[C@H](C)[C@@H](O[C@H]2C[C@@](C)(OC)[C@@H](O)[C@H](C)O2)[C@H](C)[C@@H](O[C@@H]2O[C@H](C)C[C@H](N(C)C)[C@H]2O)[C@](C)(O)C[C@@H](C)[C@H](NCCCC#N)[C@H](C)[C@@H](O)[C@]1(C)O [Compound 29, 9-Deoxo-9-[(3-cyanopropyl)amino]erythromycin] | 1 (≈ 1.25 µM) | 1 (≈ 1.25 µM) | – | – | 1 (≈ 1.25 µM) | 0.125 (≈ 0.156 µM) | – | 2 (≈ 2.49 µM) | – | – | – | – | – | 64 (≈ 79.8 µM) | 128 (≈ 160 µM) | 4 (≈ 4.99 µM) | MIC [12, 18]: 128 µg/mL (≈ 160 µM); MIC ([3]; Table IV, agar dilution): 4 µg/mL (≈ 4.99 µM); MIC ([10]; V41, read-out: minimal inhibitory concentration (MIC)): > 128 µg/mL; MIC ([7]; Staphylococcus epidermidis, 270, read-out: minimal inhibitory concentration (MIC)): > 128 µg/mL; MIC ([11]; X400, read-out: minimal inhibitory concentration (MIC)): > 128 µg/mL
12 | CC[C@H]1OC(=O)[C@H](C)[C@@H](O[C@H]2C[C@@](C)(OC)[C@@H](O)[C@H](C)O2)[C@H](C)[C@@H](O[C@@H]2O[C@H](C)C[C@H](N(C)C)[C@H]2O)[C@](C)(O)C[C@@H](C)[C@H](NCCC2=C(C)CCCC2(C)C)[C@H](C)[C@@H](O)[C@]1(C)O [Compound 30, 9-Deoxo-9-[[2-(2,6,6-trimethyl-1-cyclohexen-1-yl)ethyl]amino]erythromycin] | 1 (≈ 1.13 µM) | 0.5 (≈ 0.565 µM) | 2 (≈ 2.26 µM) | – | 1 (≈ 1.13 µM) | 0.125 (≈ 0.141 µM) | 64 (≈ 72.3 µM) | – | – | 16 (≈ 18.1 µM) | 32 (≈ 36.1 µM) | – | > 128 | > 128 | 2 (≈ 2.26 µM) | 4 (≈ 4.52 µM) | MIC ([8]; Table IV, ampicillin-sensitive strain): 4 µg/mL (≈ 4.52 µM)
